In data set [1] the target is T1, recombinant BACE1 protein (Homo sapiens, UniProt P56817).
T1 construct: recombinant BACE1 protein in a final concentration of 1 μg/ml
Description: BACE1 biochemical FRET based assay - Method 1. The note with it: BACE1 1 μg/ml, 120 minutes, 10 μm substrate, pH 5.0; read-out: Biochemical FRET based assay - Method 1 pIC50 (converted). The text has this:
(§1) BACE1 Biochemical FRET Based Assay
(§2) This assay is a Fluorescence Resonance Energy Transfer Assay (FRET) based assay. The substrate for this assay is an APP derived 13 amino acids peptide that contains the ‘Swedish’ Lys-Met/Asn-Leu mutation of the amyloid precursor protein (APP) beta-secretase cleavage site. This substrate also contains two fluorophores: (7-methoxycoumarin-4-yl) acetic acid (Mca) is a fluorescent donor with excitation wavelength at 320 nm and emission at 405 nm and 2,4-Dinitrophenyl (Dnp) is a proprietary quencher acceptor. […] Upon cleavage by BACE1, the fluorophore Mca is separated from the quenching group Dnp, restoring the full fluorescence yield of the donor. The increase in fluorescence is linearly related to the rate of proteolysis.
Briefly in a 384-well format recombinant BACE1 protein in a final concentration of 1 μg/ml is incubated for 120 minutes at room temperature with 10 μm substrate in incubation buffer (40 mM Citrate buffer pH 5.0, 0.04% PEG, 4% DMSO) in the absence or presence of compound. Next the amount of proteolysis is directly measured by fluorescence measurement at T=0 and T=120 (excitation at 320 nm and emission at 405 nm). Results are expressed in RFU (Relative Fluorescence Units), as difference between T120 and T0.
(§3) A best-fit curve is fitted by a minimum sum of squares method to the plot of % Controlmin versus compound concentration. From this an IC50 value (inhibitory concentration causing 50% inhibition of activity) can be obtained.

Data set [2] addresses T1, recombinant BACE1 protein. Description: BACE1 biochemical FRET based assay - Method 2. The conditions noted are these: BACE1 0.04 μg/ml, 450 minutes, 20 μM substrate, pH 5.0; read-out: Biochemical FRET based assay- Method 2 pIC50 (converted).
Source text: as §1, §2
Briefly in a 384-well format recombinant BACE1 protein in a final concentration of 0.04 μg/ml is incubated for 450 minutes at room temperature with 20 μM substrate in incubation buffer (50 mM Citrate buffer pH 5.0, 0.05% PEG) in the presence of compound or DMSO. Next the amount of proteolysis is directly measured by fluorescence measurement (excitation at 320 nm and emission at 405 nm) at different incubation times (0, 30, 60, 90, 120 and 450 min). For every experiment a time curve (every 30 min between 0 min and 120 min) is used to determine the time where we find the lowest basal signal of the high control. The signal at this time (Tx) is used to subtract from the signal at 450 min. Results are expressed in RFU, as difference between T450 and Tx.
as §3

Data set [3] has as its system Abeta 1-42 produced and secreted by SKNBE2 cells expressing hAPP695. The data set is described as follows: Cellular αLisa assay in SKNBE2 cells - Abeta 42. Type of data set: cell-based, human. The conditions noted are these: Homo sapiens, incubated for 18 hours, read-out: Cellular αLisa assay in SKNBE2 cells Abeta 42 pIC50 (converted). As to the method:
(§4) Cellular αLisa Assay in SKNBE2 Cells
(§5) In two αLisa assays the levels of Abeta total and Abeta 1-42 produced and secreted into the medium of human neuroblastoma SKNBE2 cells are quantified. The assay is based on the human neuroblastoma SKNBE2 expressing the wild type Amyloid Precursor Protein (hAPP695). The compounds are diluted and added to these cells, incubated for 18 hours and then measurements of Abeta 1-42 and Abeta total are taken. Abeta total and Abeta 1-42 are measured by sandwich αLisa. αLisa is a sandwich assay using biotinylated antibody AbN/25 attached to streptavidin coated beads and antibody Ab4G8 or cAb42/26 conjugated acceptor beads for the detection of Abeta total and Abeta 1-42 respectively. In the presence of Abeta total or Abeta 1-42, the beads come into close proximity. The excitation of the donor beads provokes the release of singlet oxygen molecules that trigger a cascade of energy transfer in the acceptor beads, resulting in light emission. Light emission is measured after 1 hour incubation (excitation at […] and emission at 615 nm).
as §3

Data set [4] deals with Abeta total produced and secreted by SKNBE2 cells expressing hAPP695. Description: Cellular αLisa assay in SKNBE2 cells - Abeta total. The note with it: Homo sapiens, incubated for 18 hours, read-out: Cellular αLisa assay in SKNBE2 cells Abeta total pIC50 (converted). It counts as cell-based. As to the method: as §4, §5, §3
Data set [5] concerns the target T2, recombinant BACE2 protein (Homo sapiens, UniProt Q9Y5Z0).
T2 construct: recombinant BACE2 protein in a final concentration of 0.4 μg/nil
T2 sequence (Q9Y5Z0 63-518): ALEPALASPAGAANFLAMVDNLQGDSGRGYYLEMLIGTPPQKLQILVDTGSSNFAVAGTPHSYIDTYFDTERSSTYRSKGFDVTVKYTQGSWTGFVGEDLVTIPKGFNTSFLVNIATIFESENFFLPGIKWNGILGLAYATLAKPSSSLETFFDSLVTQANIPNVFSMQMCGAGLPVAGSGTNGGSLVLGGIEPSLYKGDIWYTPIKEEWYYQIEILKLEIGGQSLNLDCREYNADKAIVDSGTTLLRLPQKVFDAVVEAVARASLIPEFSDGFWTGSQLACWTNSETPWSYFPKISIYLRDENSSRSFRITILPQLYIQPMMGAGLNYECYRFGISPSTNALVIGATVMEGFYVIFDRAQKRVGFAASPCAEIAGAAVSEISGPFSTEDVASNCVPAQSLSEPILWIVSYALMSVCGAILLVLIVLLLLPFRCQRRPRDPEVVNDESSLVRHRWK
The data set is described as follows: BACE2 biochemical FRET based assay. The conditions noted are these: BACE2 0.4 μg/nil, 450 minutes, 10 μM substrate, pH 5.0; read-out: Biochemical FRET based assay pIC50 (BACE2) (converted).
Source text: BACE2 Biochemical FRET Based Assay
as §2, with “assay” for “assay is an APP derived 13 amino acids peptide that”, “the beta-secretase,” for “BACE1,”
Briefly in a 384-well format recombinant BACE2 protein in a final concentration of […] is incubated for 450 minutes at room temperature with 10 μM substrate in incubation buffer (50 mM Citrate buffer pH 5.0, 0.05% PEG, no DMSO) in the absence or presence of compound. Next the amount of proteolysis is directly measured by fluorescence measurement at T=0 and T=450 (excitation at 320 nm and emission at 405 nm). Results are expressed in RFU (Relative Fluorescence Units), as difference between T450 and T0.
as §3

T1 sequence (P56817 46-501): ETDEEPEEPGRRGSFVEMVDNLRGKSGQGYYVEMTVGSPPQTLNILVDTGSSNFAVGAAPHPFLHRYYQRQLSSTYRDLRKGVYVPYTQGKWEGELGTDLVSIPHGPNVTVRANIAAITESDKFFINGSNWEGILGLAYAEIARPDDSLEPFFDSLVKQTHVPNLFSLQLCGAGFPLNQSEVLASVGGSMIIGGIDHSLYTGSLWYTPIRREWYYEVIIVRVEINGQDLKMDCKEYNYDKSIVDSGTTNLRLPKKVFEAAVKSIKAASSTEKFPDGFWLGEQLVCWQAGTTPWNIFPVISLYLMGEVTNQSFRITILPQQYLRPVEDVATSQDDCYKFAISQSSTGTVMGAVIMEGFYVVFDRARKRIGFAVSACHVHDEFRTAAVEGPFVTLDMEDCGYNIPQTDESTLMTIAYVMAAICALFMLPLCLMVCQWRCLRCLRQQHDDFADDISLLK

As to `C[C@@]1(c2cccc(NC(=O)c3ncc(Cl)cc3F)c2)C[C@@H](C(F)(F)F)CC(N)=N1` [Compound 5, N-[3-[(2S,4R)-6-amino-2-methyl-4-(trifluoromethyl)-4,5-dihydro-3H-pyridin-2-yl]phenyl]-5-chloro-3-fluoro-pyridine-2-carboxamide], the IC50 is 26.3 nM in data set [1]; 18.2 nM in data set [2]; 24 nM in data set [3]; 20.9 nM in data set [4]; 20.9 nM in data set [5].

Usually melting point stands for the temperature of the solid-liquid transition. The compound `COCCOc1cnc(C(=O)Nc2ccc(F)c([C@@]3(C)N=C(N)C[C@H]3C(F)(F)F)c2)cn1` (relative stereo) [Compound 23, (±)-N-[3-[(2S*,3R*)-5-amino-2-methyl-3-(trifluoromethyl)-3,4-dihydropyrrol-2-yl]-4-fluoro-phenyl]-5-(2-methoxyethoxy)pyrazine-2-carboxamide] showed a melting point of 165.48 °C. Also, the IC50 in data set [2] was 776 nM. Further, in data set [3], the IC50 was 347 nM. Also, the IC50 in data set [5] was more than 10000 nM.

As to `C[C@@]1(c2cc(NC(=O)c3ccc(Cl)cn3)ccc2F)C[C@@H](C(F)(F)F)CC(N)=N1` [Compound 11], the IC50 in data set [1] was 30.9 nM; in data set [2] it was 2.63 nM; in data set [3], 2.34 nM; in data set [4], 2 nM; in data set [5], 4.07 nM.

As to `C[C@@]1(c2cccc(NC(=O)c3ncc(Cl)cc3F)c2)C[C@H](C(F)(F)F)CC(N)=N1` [Compound 6, N-[3-[(2S,4S)-6-amino-2-methyl-4-(trifluoromethyl)-4,5-dihydro-3H-pyridin-2-yl]phenyl]-5-chloro-3-fluoro-pyridine-2-carboxamide], the IC50 was 4900 nM in data set [1]; 1620 nM in data set [2]; 2000 nM in data set [3]; 1860 nM in data set [4]; 1150 nM in data set [5].

In turn, `COc1cccnc1Nc1ccc(F)c(C2(C)N=C(N)CC2C(F)(F)F)c1` (racemic) [Compound 21, (+)-N-[3-[(2S*,3R*)-5-amino-2-methyl-3-(trifluoromethyl)-3,4-dihydropyrrol-2-yl]-4-fluoro-phenyl]-3-methoxy-pyridin-2-amine] came in with a melting point of 184.2 °C. Besides, the IC50 in data set [2] is 2400 nM. In addition, the IC50 in data set [3] was 389 nM. For the same compound, the IC50 in data set [5] is 933 nM.

For `CC1(c2cc(NC(=O)c3ccc(Br)cn3)ccc2F)N=C(N)CC1C(F)(F)F` (racemic) [Compound 40, (±)-N-[3-[(2S*,3R*)-5-amino-2-methyl-3-(trifluoromethyl)-3,4-dihydropyrrol-2-yl]-4-fluoro-phenyl]-5-bromo-pyridine-2-carboxamide], the melting point was 243.4 °C. Moreover, the IC50 in data set [2] is 324 nM.

For `CC1(c2cc(NC(=O)c3ccc(Cl)cn3)ccc2F)N=C(N)CC1C(F)(F)F` (racemic) [Compound 15, (±)-N-(3-((2S*,3R*)-5-amino-2-methyl-3-(trifluoromethyl)-3,4-dihydro-2H-pyrrol-2-yl)-4-fluorophenyl)-5-chloropicolinamide], the melting point came to 240.62 °C. In data set [2], the IC50 is 490 nM. Moreover, the IC50 in data set [3] is 100 nM. Further, in data set [4], the IC50 is 129 nM. The IC50 in data set [5] was 912 nM.

`COc1cnc(C(=O)Nc2ccc(F)c([C@]3(C)C[C@@H](C(F)(F)F)CC(N)=N3)c2)cn1` [Compound 9, N-{3-[(2S,4R)-6-amino-2-methyl-4-(trifluoromethyl)-4,5-dihydro-3H-pyridin-2-yl]-4-fluoro-phenyl]-5-methoxy-pyrazine-2-carboxamide]: the IC50 in data set [1] is 38.9 nM; in data set [2], 7.59 nM; in data set [3] it was 5.25 nM; in data set [4], 5.89 nM; in data set [5], 67.6 nM.

Regarding `Cc1nc(C(=O)Nc2ccc(F)c(C3(C)N=C(N)CC3C(F)(F)F)c2)co1` (racemic) [Compound 16, (±)-N-[3-1[(2S*,3R*)-5-amino-2-methyl-3-(trifluoromethyl)-3,4-dihydropyrrol-2-yl]-4-fluoro-phenyl]-2-methyl-oxazole-4-carboxamide], the melting point was 207.05 °C. Further, in data set [2], the IC50 was 1150 nM. Also, the IC50 in data set [3] was 251 nM. For the same compound, the IC50 in data set [4] was 240 nM. Also, the IC50 in data set [5] is 537 nM.

Turning to `C[C@@]1(c2cccc(NC(=O)c3ccc(C#N)cn3)c2)C[C@@H](C(F)(F)F)CC(N)=N1` [Compound 7, N-[3-[(2S,4R)-6-amino-2-methyl-4-(trifluoromethyl)-4,5-dihydro-3H-pyridin-2-yl]phenyl]-5-cyano-pyridine-2-carboxamide], the IC50 is 32.4 nM in data set [1]; 20.4 nM in data set [2]; 24 nM in data set [3]; 24 nM in data set [4]; 132 nM in data set [5].

`C[C@@]1(c2cccc(NC(=O)c3ccc(C#N)cn3)c2)C[C@H](C(F)(F)F)CC(N)=N1` [Compound 8, N-[3-[(2S,4S)-6-amino-2-methyl-4-(trifluoromethyl)-4,5-dihydro-3H-pyridin-2-yl]phenyl]-5-cyano-pyridine-2-carboxamide]: the IC50 is 9770 nM in data set [1]; 6760 nM in data set [2]; 2290 nM in data set [3]; 2510 nM in data set [4]; more than 10000 nM in data set [5].

For the origin of these results see US10106524B2, “2,3,4,5-tetrahydropyridin-6-amine and 3,4-dihydro-2H-pyrrol-5-amine compound inhibitors of beta-secretase” (Janssen Pharmaceutica NV, priority 2015, dated 2018).
